According to US20240390434A1, “PROBIOTIC ENHANCERS AND USES THEREOF” (Blis Technologies Limited, priority 2021, published 2024):

Columns and labels:
Format in all cases: cell-based
[1] = tested on: M. catarrhalis TW1; experiment: Deferred antagonism assay, producer S. salivarius M18
Procedure: 1-2 producer strain colonies were transferred from a stock plate into 900 μL of suspension solution using a fresh cotton swab. Following this, suspensions were vortexed, and a sample was inoculated onto solid culture media using a fresh cotton swab. The inoculation was a streak that runs diametrically across the agar plate in a 1.5 cm wide strip. The plate was then incubated. Following incubation all visible colonies were removed by swabbing them from the agar surface. The plates were then treated with chloroform by dispensing 2 ml of chloroform onto 4 cm×4 cm piece of cloth and sealing the inverted agar plate on top for 30 minutes. The plates were then air dried for 30 minutes following chloroforming. 1-2 indicator strain colonies were then transferred from a stock plate into complementary suspension solution. The suspensions were then vortexed, and a sample was inoculated onto the same agar surface. These samples were streaked in a perpendicular direction to the initial producer streak.
Each indicator streak was prepared with fresh a suspension containing cells from a corresponding stock plate containing the indicator strain of interest. Indicator strains suspension samples were transferred using a fresh cotton swab. Results were measured by qualitatively reviewing the subsequent (if any) sizes of the zones of inhibition (ZOI) of indicator strain colony growth. A positive result is when there is a distinctive reduction or complete inhibition of indicator colony growth on the culture medium.
CABCa agar plates containing various concentrations of saccharide were prepared according to the methods described in Method 1. Producer strains were transferred from stock agar plates into 900 μL THB using a fresh cotton swab. A plastic spread plater was cut to approximately 1.2 cm width and then dipped into ethanol and left to air dry to ensure sterility. A 100 μL sample of the producer strain suspension was then dispensed onto the agar surface in a straight line running diametrically across the agar surface in (approximately) 20 μL spots. The spots were spaced approximately 1.5 cm apart from each other. The plastic spreader was then used to evenly distribute the spots across the agar surface in a 1.5 cm wide strip. This step was taken to ensure an even producer streak was inoculated onto the agar surface and provided an approximate measure of the initial inoculum concentration. Separate plastic spreaders were used for samples containing different producer strains. The samples were left to soak into the agar surface until there was no visible liquid remaining on the agar surface (approximately 20 minutes). Following producer streak preparations, the deferred antagonism assay protocol was followed as per Method 2. Results were recorded by measuring the size of the zone of inhibition (ZOI) in mm.
A dose response assay was carried out according to method 3 above, except a 1.2 cm streak was used. For the individual saccharide testing the pH of the producer streak was adjusted after the growth of producer to change the acidic conditions.

[2] = tested on: indicator bacterial test strains; experiment: Inhibitory activity of freeze dried raw ingredient powder, K12 and M18 combination; conditions: galactose 0.5% w/w; raffinose 2.5% w/w; or combination
Procedure: Method: The amount of raffinose and galactose used was calculated based on the volume of the area of the producer streak, (which was calculated to be 4.25 g) to allow for the absorption of the saccharides into the agar. Based on this, amount of 0.021 g (i.e. 0.5% w/w galactose of 4.25 g agar volume) of galactose, 0.11 g (i.e 2.5% w/w) of raffinose and the combination of galactose (0.5% w/w) and raffinose (2.5% w/w) (0.13 g total) were weighed into sterile containers. K12 and/or M18 raw ingredient were suspended and diluted with sterile distilled water to a concentration of 1-2×10^6 cfu/100 μl. Then, […] of K12 only, M18 only, and K12±M18 suspensions were spread as a 1 cm streak down the middle of a CABCa agar plate using a sterile spreader. […] Bacterial growth was then removed using a microscope slide, and the pH of the agar in the producer streak area was measured and adjusted to pH 6.5-7.5 using 0.5M sodium carbonate (pH 11) before surface sterilizing the plates with chloroform vapour. […] Zones of inhibition for each test organism were then measured in mm using a ruler. The amount of raffinose and galactose to be used was calculated based on the volume of the area of the producer streak, (which was calculated to be 4.25 g) to allow for absorption into the agar.

[3] = tested on: M. catarrhalis TW2; experiment: Dose response deferred antagonism assay, producer M18

Structure (SMILES) | increase in zone of inhibition M. catarrhalis TW1 ([1]; 1.0% (w/v) galactose) [mm] | increase in zone of inhibition M. catarrhalis TW1 ([1]; 1.5% (w/v) galactose) [mm] | inhibitory activity of freeze-dried raw ingredient powder of K12 and M18 combination [2] | increase in zone of inhibition M. catarrhalis TW2 ([3]; 1.0% (w/v) galactose) [mm] | increase in zone of inhibition M. catarrhalis TW2 ([3]; 1.5% (w/v) galactose) [mm] | change in zone of inhibition size M. catarrhalis TW1 ([1]; 1.5% (w/v) raffinose) [mm] | Zone of inhibition M. catarrhalis TW1 ([1]; Raffinose 1.7% wt) [mm] | Zone of inhibition M. catarrhalis TW1 ([1]; Raffinose 1.7% wt, pH adjusted) [mm] | Zone of inhibition M. catarrhalis TW1 ([1]; Raffinose 2.5% wt) [mm] | Zone of inhibition M. catarrhalis TW1 ([1]; Raffinose 2.5% wt, pH adjusted) [mm] | Zone of inhibition M. catarrhalis TW1 ([1]; Raffinose 3.3% wt) [mm] | Zone of inhibition M. catarrhalis TW1 ([1]; Raffinose 3.3% wt, pH adjusted) [mm] | Zone of inhibition M. catarrhalis TW1 ([1]; Raffinose 5% wt) [mm] | Zone of inhibition M. catarrhalis TW1 ([1]; Raffinose 5% wt, pH adjusted) [mm] | Zone of inhibition M. catarrhalis TW1 ([1]; Raffinose 10% wt) [mm] | Zone of inhibition M. catarrhalis TW1 ([1]; Raffinose 10% wt, pH adjusted) [mm] | change in zone of inhibition size M. catarrhalis TW2 ([3]; 1.5% (w/v) raffinose) [mm]
O=C[C@H](O)[C@@H](O)[C@@H](O)[C@H](O)CO [Galactose, D-galactose] | 12 | 23 | induced the inhibitory activity | 13 | 23 | – | – | – | – | – | – | – | – | – | – | – | –
OC[C@H]1O[C@H](OC[C@H]2O[C@H](O[C@]3(CO)O[C@H](CO)[C@@H](O)[C@@H]3O)[C@H](O)[C@@H](O)[C@@H]2O)[C@H](O)[C@@H](O)[C@H]1O [Raffinose, D-(+) Raffinose pentahydrate] | – | – | induced the inhibitory activity | – | – | 31 | 7 | 0 | 17 | 0 | 0 | 0 | 15 | 0 | 0 | 0 | 31
